Laboratory results taken from PubChem BioAssay AID1918933 (Molecular Pharmacology Branch, DTP, NCI, 2023).

Test system: 186277-243-T-J2-PDC complex spheroid viability
Assay: Anticancer human tumor 186277-243-T-J2-PDC patient-derived colon adenocarcinoma cell line growth inhibition
Conditions: for IC50: curve of first compound; for viability, T/C: stronger effect = lower value
Method in brief: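 Complex spheroids of tumor cells with HUVEC and human MSCs, exposed to iadademstat combined with other agents. Each agent tested in half-log steps from near clinical Cmax (else 10 microM top), DMSO ≤0.25%.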

[1] = second compound 0.1 µM, first compound 0.000949 µM
[2] = second compound 0.1 µM, first compound 0.003 µM
[3] = second compound 0.1 µM, first compound 0.00949 µM
[4] = second compound 0.1 µM, first compound 0.03 µM
[5] = second compound 0.1 µM, first compound 0.0949 µM
[6] = second compound 0.1 µM, first compound 0.3 µM
[7] = second compound 0.316 µM, first compound 0.000949 µM
[8] = second compound 0.316 µM, first compound 0.003 µM
[9] = second compound 0.316 µM, first compound 0.00949 µM
[10] = second compound 0.316 µM, first compound 0.03 µM
[11] = second compound 0.316 µM, first compound 0.0949 µM
[12] = second compound 0.316 µM, first compound 0.3 µM
[13] = second compound 1 µM, first compound 0.000949 µM
[14] = second compound 1 µM, first compound 0.003 µM
[15] = second compound 1 µM, first compound 0.00949 µM
[16] = second compound 1 µM, first compound 0.03 µM
[17] = second compound 1 µM, first compound 0.0949 µM
[18] = second compound 1 µM, first compound 0.3 µM
[19] = second compound 3.16 µM, first compound 0.000949 µM
[20] = second compound 3.16 µM, first compound 0.003 µM
[21] = second compound 3.16 µM, first compound 0.00949 µM
[22] = second compound 3.16 µM, first compound 0.03 µM
[23] = second compound 3.16 µM, first compound 0.0949 µM
[24] = second compound 3.16 µM, first compound 0.3 µM
[25] = second compound 10 µM, first compound 0.000949 µM
[26] = second compound 10 µM, first compound 0.003 µM
[27] = second compound 10 µM, first compound 0.00949 µM
[28] = second compound 10 µM, first compound 0.03 µM
[29] = second compound 10 µM, first compound 0.0949 µM
[30] = second compound 10 µM, first compound 0.3 µM
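Further: 7 day exposure to compounds.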
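Wherever viability, T/C is given: 100% = DMSO vehicle control viability.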

Work on `CC[C@@]1(O)C(=O)OCc2c1cc1n(c2=O)Cc2cc3c(CN(C)C)c(O)ccc3nc2-1` + NC1CCC(NC2CC2c2ccccc2)CC1 yielded an IC50 (second compound 0.1 µM) greater than 100 nM, an IC50 (second compound 0.316 µM) greater than 100 nM and an IC50 (second compound 1 µM) greater than 100 nM. It also gave an IC50 (second compound 3.16 µM) greater than 100 nM, an IC50 (second compound 10 µM) greater than 100 nM and a viability, T/C (second compound 0.1 µM, first compound 0.000316 µM) of 106%. For the same compound, the viability, T/C (second compound 0.1 µM, first compound 0.001 µM) was 99.1%, the viability, T/C (second compound 0.1 µM, first compound 0.00316 µM) was 137% and the viability, T/C (second compound 0.1 µM, first compound 0.01 µM) was 131%. It also gave a viability, T/C (second compound 0.1 µM, first compound 0.0316 µM) of 102%, a viability, T/C (second compound 0.1 µM, first compound 0.1 µM) of 51.8% and a viability, T/C (second compound 0.316 µM, first compound 0.000316 µM) of 111%. The viability, T/C (second compound 0.316 µM, first compound 0.001 µM) was 108%, the viability, T/C (second compound 0.316 µM, first compound 0.00316 µM) was 131% and the viability, T/C (second compound 0.316 µM, first compound 0.01 µM) was 132%. The viability, T/C (second compound 0.316 µM, first compound 0.0316 µM) was 98.6%, the viability, T/C (second compound 0.316 µM, first compound 0.1 µM) was 52.8% and the viability, T/C (second compound 1 µM, first compound 0.000316 µM) was 107%. The viability, T/C (second compound 1 µM, first compound 0.001 µM) was 114%, the viability, T/C (second compound 1 µM, first compound 0.00316 µM) was 137% and the viability, T/C (second compound 1 µM, first compound 0.01 µM) was 131%. It also gave a viability, T/C (second compound 1 µM, first compound 0.0316 µM) of 103%, a viability, T/C (second compound 1 µM, first compound 0.1 µM) of 56.9% and a viability, T/C (second compound 3.16 µM, first compound 0.000316 µM) of 107%. For the same compound, the viability, T/C (second compound 3.16 µM, first compound 0.001 µM) was 124%, the viability, T/C (second compound 3.16 µM, first compound 0.00316 µM) was 147% and the viability, T/C (second compound 3.16 µM, first compound 0.01 µM) was 134%. The viability, T/C (second compound 3.16 µM, first compound 0.0316 µM) was 104%, the viability, T/C (second compound 3.16 µM, first compound 0.1 µM) was 61.6% and the viability, T/C (second compound 10 µM, first compound 0.000316 µM) was 104%. The viability, T/C (second compound 10 µM, first compound 0.001 µM) was 116%, the viability, T/C (second compound 10 µM, first compound 0.00316 µM) was 140% and the viability, T/C (second compound 10 µM, first compound 0.01 µM) was 131%. The viability, T/C (second compound 10 µM, first compound 0.0316 µM) was 110% and the viability, T/C (second compound 10 µM, first compound 0.1 µM) was 63.2%.
`CCc1c2c(nc3ccc(O)cc13)-c1cc3c(c(=O)n1C2)COC(=O)[C@]3(O)CC` + NC1CCC(NC2CC2c2ccccc2)CC1 gave an IC50 (second compound 0.1 µM) of 2.11 nM, an IC50 (second compound 0.316 µM) of 2.07 nM and an IC50 (second compound 1 µM) of 2.69 nM. The IC50 (second compound 3.16 µM) was 3.63 nM, the IC50 (second compound 10 µM) was 2.87 nM and the viability, T/C [1] was 63%. For the same compound, the viability, T/C [2] was 40.7%, the viability, T/C [3] was 33.6% and the viability, T/C [4] was 17.5%. For the same compound, the viability, T/C [5] was 1.51%, the viability, T/C [6] was 0.43% and the viability, T/C [7] was 62.7%. For the same compound, the viability, T/C [8] was 42.2%, the viability, T/C [9] was 30.1% and the viability, T/C [10] was 19.3%. The viability, T/C [11] was 1.53%, the viability, T/C [12] was 0.53% and the viability, T/C [13] was 65.7%. It also gave a viability, T/C [14] of 43.1%, a viability, T/C [15] of 38.1% and a viability, T/C [16] of 20.4%. It also gave a viability, T/C [17] of 1.56%, a viability, T/C [18] of 0.4% and a viability, T/C [19] of 71.2%. It also gave a viability, T/C [20] of 49.2%, a viability, T/C [21] of 38.2% and a viability, T/C [22] of 20.8%. It also gave a viability, T/C [23] of 1.23%, a viability, T/C [24] of 0.47% and a viability, T/C [25] of 80.1%. It also gave a viability, T/C [26] of 44.5%, a viability, T/C [27] of 32.6% and a viability, T/C [28] of 15.5%. The viability, T/C [29] was 1.74% and the viability, T/C [30] was 1.75%.
`COc1cc(C2c3cc4c(cc3C(OC3OC5COC(C)OC5C(O)C3O)C3COC(=O)C23)OCO4)cc(OC)c1O` (stereo not given) + NC1CCC(NC2CC2c2ccccc2)CC1 gave an IC50 (second compound 0.1 µM) of 2710 nM, an IC50 (second compound 0.316 µM) of 2750 nM and an IC50 (second compound 1 µM) greater than 3000 nM. For the same compound, the IC50 (second compound 3.16 µM) was greater than 3000 nM, the IC50 (second compound 10 µM) was greater than 3000 nM and the viability, T/C [3] was 93%. It also gave a viability, T/C [4] of 125%, a viability, T/C [5] of 144% and a viability, T/C [6] of 98.6%. It also gave a viability, T/C (second compound 0.1 µM, first compound 0.949 µM) of 74.2%, a viability, T/C (second compound 0.1 µM, first compound 3 µM) of 46.9% and a viability, T/C [9] of 120%. The viability, T/C [10] was 121%, the viability, T/C [11] was 150% and the viability, T/C [12] was 98.7%. It also gave a viability, T/C (second compound 0.316 µM, first compound 0.949 µM) of 72.9%, a viability, T/C (second compound 0.316 µM, first compound 3 µM) of 46.1% and a viability, T/C [15] of 109%. The viability, T/C [16] was 111%, the viability, T/C [17] was 150% and the viability, T/C [18] was 99.5%. The viability, T/C (second compound 1 µM, first compound 0.949 µM) was 71.4%, the viability, T/C (second compound 1 µM, first compound 3 µM) was 49.2% and the viability, T/C [21] was 111%. The viability, T/C [22] was 111%, the viability, T/C [23] was 155% and the viability, T/C [24] was 104%. For the same compound, the viability, T/C (second compound 3.16 µM, first compound 0.949 µM) was 77.6%, the viability, T/C (second compound 3.16 µM, first compound 3 µM) was 52.3% and the viability, T/C [27] was 113%. The viability, T/C [28] was 111%, the viability, T/C [29] was 150% and the viability, T/C [30] was 109%. For the same compound, the viability, T/C (second compound 10 µM, first compound 0.949 µM) was 81.5% and the viability, T/C (second compound 10 µM, first compound 3 µM) was 57.4%.
Compound `Nc1ccn(C2OC(CO)C(O)C2(F)F)c(=O)n1` (stereo not given) + NC1CCC(NC2CC2c2ccccc2)CC1 has an IC50 (second compound 0.1 µM) of less than 0.949 nM, an IC50 (second compound 0.316 µM) of less than 0.949 nM and an IC50 (second compound 1 µM) of less than 0.949 nM. For the same compound, the IC50 (second compound 3.16 µM) was less than 0.949 nM, the IC50 (second compound 10 µM) was less than 0.949 nM and the viability, T/C [1] was 25.8%. For the same compound, the viability, T/C [2] was 17.1%, the viability, T/C [3] was 16.5% and the viability, T/C [4] was 15.9%. It also gave a viability, T/C [5] of 15.9%, a viability, T/C [6] of 15.1% and a viability, T/C [7] of 22.9%. For the same compound, the viability, T/C [8] was 18.7%, the viability, T/C [9] was 16.2% and the viability, T/C [10] was 15.6%. The viability, T/C [11] was 16.1%, the viability, T/C [12] was 15.6% and the viability, T/C [13] was 26%. The viability, T/C [14] was 18.6%, the viability, T/C [15] was 18.1% and the viability, T/C [16] was 18%. It also gave a viability, T/C [17] of 16.8%, a viability, T/C [18] of 16.3% and a viability, T/C [19] of 27.2%. It also gave a viability, T/C [20] of 20.5%, a viability, T/C [21] of 20.1% and a viability, T/C [22] of 19.6%. For the same compound, the viability, T/C [23] was 19.2%, the viability, T/C [24] was 15.9% and the viability, T/C [25] was 31.3%. It also gave a viability, T/C [26] of 25.1%, a viability, T/C [27] of 25.3% and a viability, T/C [28] of 18.5%. The viability, T/C [29] was 23.3% and the viability, T/C [30] was 20.9%.
